Columns and labels:
[1] = biological target: T1, type 2 human 5α-reductase (HRED2) (Homo sapiens, UniProt P31213); experiment: Whole cell assay of 5α-reductase, type 2 isoenzyme; type: cell-based; design: expressed in transfected cells; host or cells: rat 1A cells infected with pMV7 retrovirus; details: for inhibition at 100 µM / HRED2 % Inhibition @ 100 μM: Table 7; for IC50: Table 7, read-out: HCRED2 IC50;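 as to all read-outs here: intact rat 1A cells genetically modified to carry human type 2 5α-reductase served as the enzyme source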
T1 sequence (P31213 1-254): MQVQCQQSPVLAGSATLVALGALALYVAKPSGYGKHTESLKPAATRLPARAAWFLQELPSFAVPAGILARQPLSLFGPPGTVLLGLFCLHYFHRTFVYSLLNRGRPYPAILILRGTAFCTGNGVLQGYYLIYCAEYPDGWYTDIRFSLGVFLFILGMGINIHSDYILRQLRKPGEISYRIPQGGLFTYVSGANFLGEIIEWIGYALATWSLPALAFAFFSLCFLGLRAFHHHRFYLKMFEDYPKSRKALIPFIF

[2] = biological target: T1, type 2 human 5α-reductase (HRED2); experiment: Cell free assay of 5α-reductase, microsomes of rat 1A cells expressing type 2 isoenzyme (HRED2); type: biochemical; design: expressed in transfected cells; host or cells: rat 1A cells infected with pMV7 retrovirus; microsomes;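 also: labeled testosterone and its product dihydrotestosterone measured in microsomal reaction extracts via thin layer chromatography plus radioanalytic scanning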
[3] = biological target: T2, type 1 human 5α-reductase (HRED1) (Homo sapiens, UniProt P18405); experiment: Whole cell assay of 5α-reductase, type 1 isoenzyme; type: cell-based; design: expressed in transfected cells; host or cells: rat 1A cells infected with pMV7 retrovirus;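 also: intact rat 1A cells engineered to express the human type 1 5α-reductase isozyme serve as the enzyme source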
T2 sequence (P18405 1-259): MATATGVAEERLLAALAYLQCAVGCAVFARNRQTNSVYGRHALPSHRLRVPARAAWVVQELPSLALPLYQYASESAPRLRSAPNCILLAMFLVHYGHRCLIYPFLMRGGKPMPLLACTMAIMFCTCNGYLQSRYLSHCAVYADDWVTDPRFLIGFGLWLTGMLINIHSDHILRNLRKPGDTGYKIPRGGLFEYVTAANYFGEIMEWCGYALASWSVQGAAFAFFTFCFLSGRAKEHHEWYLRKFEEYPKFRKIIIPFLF

[4] = biological target: T2, type 1 human 5α-reductase (HRED1); experiment: Cell free assay of 5α-reductase, microsomes of rat 1A cells expressing type 1 isoenzyme (HRED1); type: biochemical; design: expressed in transfected cells; host or cells: rat 1A cells infected with pMV7 retrovirus; microsomes;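 also: microsomes from rat 1A cells expressing human type 1 5α-reductase, conversion of radiolabeled testosterone to dihydrotestosterone quantified by thin layer chromatography with radioanalytic scanning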
[5] = cell free assay, Table 1 flavanoids, read-out: HRED2 IC50
[6] = whole cell assay, Table 7, read-out: HCRED1 IC50
[7] = cell free assay, Table 1 flavanoids, read-out: HRED1 IC50
[8] = 100 uM, cell free assay, Table 1, read-out: HRED2 % Inhibition @ 100 uM
[9] = 100 uM, cell free assay, Table 1, read-out: HRED1 % Inhibition @ 100 uM
[10] = cell-free assay, read-out: IC50, type 1 isoenzyme

Row | Compound | inhibition at 100 µM [1] [%] | IC50 [1] [µM] | IC50 [2, 5] [µM] | inhibition at 100 µM ([3]; whole cell assay, Table 7) [%] | IC50 [3, 6] [µM] | IC50 [4, 7] [µM] | HRED2 % Inhibition @ 100 μM [1] [%] | HRED1 % Inhibition @ 100 μM ([3]; whole cell assay, Table 7) [%] | further results
1 | O=C(O[C@@H]1Cc2c(O)cc(O)cc2O[C@@H]1c1ccc(O)c(O)c1)c1cc(O)c(O)c(O)c1 [Epicatechin Gallate] | 0 | > 100 | 60 | 0 | > 100 | 11 | – | – | inhibition at 100 µM ([2]; read-out: HRED2 % Inhibition @ 100 uM): 83%; inhibition at 100 µM ([4]; read-out: HRED1 % Inhibition @ 100 uM): 100%
2 | Oc1cc(O)c2c(c1)O[C@H](c1ccc(O)c(O)c1)[C@H](O)C2 [Epicatechin] | 1 | > 100 | > 100 | 0 | > 100 | > 100 | – | – | inhibition at 100 µM [2, 8]: 4%; inhibition at 100 µM [4, 9]: 14%
3 | Oc1cc(O)c2c(c1)O[C@H](c1cc(O)c(O)c(O)c1)[C@H](O)C2 [Epigallocatechin] | 1 | > 100 | > 100 | 15 | > 100 | > 100 | – | – | inhibition at 100 µM [2, 8]: 3%; inhibition at 100 µM ([2]; 100 μM, cell free assay, Table 5, read-out: HRED2 % Inhibition @ 100 μM): 30%; IC50 ([2]; cell free assay, Table 5 epigallocatechin derivatives, read-out: HRED2 IC50): > 100 µM; inhibition at 100 µM [4, 9]: 15%; inhibition at 100 µM ([4]; 100 μM, cell free assay, Table 5, read-out: HRED1 % Inhibition @ 100 μM): 61%; IC50 ([4]; cell free assay, Table 5 epigallocatechin derivatives, read-out: HRED1 IC50): 62 µM
4 | O=c1c(O)c(-c2ccc(O)c(O)c2)oc2cc(O)ccc12 [Fisetin] | 27 | > 100 | > 100 | 42 | > 100 | 57 | – | – | inhibition at 100 µM [2, 8]: 4%; inhibition at 100 µM [4, 9]: 97%; IC50 [4, 10]: < 100 µM
5 | O=C(O)c1cc(O)c(O)c(O)c1 [Gallic Acid] | 0 | > 100 | – | 13 | – | – | – | – | IC50 [3]: > 100 µM
6 | CCCCC/C=C\C/C=C\C/C=C\CCCCC(=O)O[C@H]1CC[C@@]2(C)C(=CC[C@H]3[C@@H]4CC[C@H]([C@H](C)CCCC(C)C)[C@@]4(C)CC[C@@H]32)C1 [Gamma-Linolenic Acid Chol Ester] | – | > 100 | – | – | > 100 | – | 11 | 12 | –
7 | CCCCC/C=C\C/C=C\C/C=C\CCCCC(=O)OC [Gamma-Linolenic Acid Me Ester] | – | > 100 | – | – | > 100 | – | 26 | 49 | –
8 | CCCCC/C=C\C/C=C\C/C=C\CCCCC(=O)O [Gamma-Linolenic Acid, Gamma-Linolenic Acid C18:3 CIS 6.9,12] | 86 | 20 | – | 91 | 22 | – | – | – | inhibition at 100 µM ([2]; 100 μM, cell free assay, Table 6, read-out: HRED2 % Inhibition @ 100 μM): 89%; IC50 ([2]; cell free assay, Table 6 fatty acids, read-out: HRED2 IC50): 11 µM; IC50 ([2]; cell-free assay, read-out: IC50, type 2 isoenzyme): 3 µM; IC50 ([4]; cell free assay, Table 6 fatty acids, read-out: HRED1 IC50): 5 µM; IC50 [4, 10]: 3 µM; inhibition at 100 µM ([4]; read-out: HRED1 % Inhibition @ 100 μM): 99%
9 | O=c1c(-c2ccc(O)cc2)coc2cc(O)cc(O)c12 [Genistein] | – | – | – | – | – | – | – | – | inhibitory activity in the whole cell assay, type 2 isoenzyme, in words [1]: significant inhibitory activity; inhibitory activity against type 2 isoenzyme, in words ([2]; cell-free assay): effective inhibitors
10 | CCCCCCCCCCCCCC(=O)OC1Cc2c(O)cc(O)cc2OC1c1cc(O)c(O)c(O)c1 (stereo not shown) [HZIV 165] | – | 32 | – | – | 28 | – | 98 | 97 | –
11 | CCCCCCCC(=O)OC1Cc2c(O)cc(O)cc2OC1c1cc(O)c(O)c(O)c1 (stereo not shown) [HZIV 166] | – | 72 | – | – | 58 | – | 83 | 89 | –
12 | CC(C)OC(=O)c1cc(O)c(O)c(O)c1 [Isopropyl Gallate] | 0 | > 100 | – | 0 | > 100 | – | – | – | –

— patent US20030144346A1, “Methods and compositions for regulation of 5-alpha reductase activity” (priority 1997, published 2003)
